Experimental data reported in BigSolDB 2.1.

SMILES: COc1ccc(C(=O)O)cc1
- solubility (mole fraction) (in 2-butanone, 283.15 K): 0.0107
- solubility (mole fraction) (in 2-butanone, 288.15 K): 0.0128
- solubility (mole fraction) (in 2-butanone, 293.15 K): 0.0149
- solubility (mole fraction) (in 2-butanone, 298.15 K): 0.0169
- solubility (mole fraction) (in 2-butanone, 303.15 K): 0.0198
- solubility (mole fraction) (in 2-butanone, 308.15 K): 0.023
- solubility (mole fraction) (in 2-butanone, 313.15 K): 0.0266
- solubility (mole fraction) (in 2-butanone, 318.15 K): 0.0298
- solubility (mole fraction) (in 2-butanone, 323.15 K): 0.0343
- solubility (mole fraction) (in 2-butanone, 328.15 K): 0.0394
- solubility (mole fraction) (in THF, 283.15 K): 0.0483
- solubility (mole fraction) (in THF, 288.15 K): 0.0518
- solubility (mole fraction) (in THF, 293.15 K): 0.0562
- solubility (mole fraction) (in THF, 298.15 K): 0.0621
- solubility (mole fraction) (in THF, 303.15 K): 0.0671
- solubility (mole fraction) (in THF, 308.15 K): 0.0731
- solubility (mole fraction) (in THF, 313.15 K): 0.078
- solubility (mole fraction) (in THF, 318.15 K): 0.085
- solubility (mole fraction) (in THF, 323.15 K): 0.0923
- solubility (mole fraction) (in THF, 328.15 K): 0.0991
- solubility (mole fraction) (in acetone, 283.15 K): 0.0129
- solubility (mole fraction) (in acetone, 288.15 K): 0.0153
- solubility (mole fraction) (in acetone, 293.15 K): 0.0173
- solubility (mole fraction) (in acetone, 298.15 K): 0.0197
- solubility (mole fraction) (in acetone, 303.15 K): 0.0224
- solubility (mole fraction) (in acetone, 308.15 K): 0.026
- solubility (mole fraction) (in acetone, 313.15 K): 0.0298
- solubility (mole fraction) (in acetone, 318.15 K): 0.032
- solubility (mole fraction) (in acetone, 323.15 K): 0.0344
- solubility (mole fraction) (in acetone, 328.15 K): 0.0368
- solubility (mole fraction) (in cyclohexanone, 283.15 K): 0.0187
- solubility (mole fraction) (in cyclohexanone, 288.15 K): 0.0203
- solubility (mole fraction) (in cyclohexanone, 293.15 K): 0.022
- solubility (mole fraction) (in cyclohexanone, 298.15 K): 0.025
- solubility (mole fraction) (in cyclohexanone, 303.15 K): 0.0292
- solubility (mole fraction) (in cyclohexanone, 308.15 K): 0.034
- solubility (mole fraction) (in cyclohexanone, 313.15 K): 0.0397
- solubility (mole fraction) (in cyclohexanone, 318.15 K): 0.0449
- solubility (mole fraction) (in cyclohexanone, 323.15 K): 0.0507
- solubility (mole fraction) (in cyclohexanone, 328.15 K): 0.059
- solubility (mole fraction) (in ethyl formate, 283.15 K): 0.00442
- solubility (mole fraction) (in ethyl formate, 288.15 K): 0.00508
- solubility (mole fraction) (in ethyl formate, 293.15 K): 0.00606
- solubility (mole fraction) (in ethyl formate, 298.15 K): 0.00738
- solubility (mole fraction) (in ethyl formate, 303.15 K): 0.00889
- solubility (mole fraction) (in ethyl formate, 308.15 K): 0.0114
- solubility (mole fraction) (in ethyl formate, 313.15 K): 0.0135
- solubility (mole fraction) (in ethyl formate, 318.15 K): 0.0152
- solubility (mole fraction) (in ethyl formate, 323.15 K): 0.0178
- solubility (mole fraction) (in ethyl formate, 328.15 K): 0.0195
- solubility (mole fraction) (in ethylene glycol, 283.15 K): 0.0022
- solubility (mole fraction) (in ethylene glycol, 288.15 K): 0.00292
- solubility (mole fraction) (in ethylene glycol, 293.15 K): 0.0038
- solubility (mole fraction) (in ethylene glycol, 298.15 K): 0.0046
- solubility (mole fraction) (in ethylene glycol, 303.15 K): 0.00546
- solubility (mole fraction) (in ethylene glycol, 308.15 K): 0.00649
- solubility (mole fraction) (in ethylene glycol, 313.15 K): 0.00768
- solubility (mole fraction) (in ethylene glycol, 318.15 K): 0.00885
- solubility (mole fraction) (in ethylene glycol, 323.15 K): 0.0105
- solubility (mole fraction) (in ethylene glycol, 328.15 K): 0.0126
- solubility (mole fraction) (in isobutanol, 283.15 K): 0.00435
- solubility (mole fraction) (in isobutanol, 288.15 K): 0.00548
- solubility (mole fraction) (in isobutanol, 293.15 K): 0.00691
- solubility (mole fraction) (in isobutanol, 298.15 K): 0.00889
- solubility (mole fraction) (in isobutanol, 303.15 K): 0.0116
- solubility (mole fraction) (in isobutanol, 308.15 K): 0.0143
- solubility (mole fraction) (in isobutanol, 313.15 K): 0.0178
- solubility (mole fraction) (in isobutanol, 318.15 K): 0.0206
- solubility (mole fraction) (in isobutanol, 323.15 K): 0.025
- solubility (mole fraction) (in isobutanol, 328.15 K): 0.0288
- solubility (mole fraction) (in isopropyl acetate, 283.15 K): 0.00637
- solubility (mole fraction) (in isopropyl acetate, 288.15 K): 0.00732
- solubility (mole fraction) (in isopropyl acetate, 293.15 K): 0.00833
- solubility (mole fraction) (in isopropyl acetate, 298.15 K): 0.00955
- solubility (mole fraction) (in isopropyl acetate, 303.15 K): 0.0116
- solubility (mole fraction) (in isopropyl acetate, 308.15 K): 0.0135
- solubility (mole fraction) (in isopropyl acetate, 313.15 K): 0.0156
- solubility (mole fraction) (in isopropyl acetate, 318.15 K): 0.0179
- solubility (mole fraction) (in isopropyl acetate, 323.15 K): 0.021
- solubility (mole fraction) (in isopropyl acetate, 328.15 K): 0.0246
- solubility (mole fraction) (in n-butanol, 283.15 K): 0.00647
- solubility (mole fraction) (in n-butanol, 288.15 K): 0.0077
- solubility (mole fraction) (in n-butanol, 293.15 K): 0.00946
- solubility (mole fraction) (in n-butanol, 298.15 K): 0.011
- solubility (mole fraction) (in n-butanol, 303.15 K): 0.0133
- solubility (mole fraction) (in n-butanol, 308.15 K): 0.0158
- solubility (mole fraction) (in n-butanol, 313.15 K): 0.0186
- solubility (mole fraction) (in n-butanol, 318.15 K): 0.0218
- solubility (mole fraction) (in n-butanol, 323.15 K): 0.0255
- solubility (mole fraction) (in n-butanol, 328.15 K): 0.0302
- solubility (mole fraction) (in n-butyl acetate, 283.15 K): 0.00629
- solubility (mole fraction) (in n-butyl acetate, 288.15 K): 0.00719
- solubility (mole fraction) (in n-butyl acetate, 293.15 K): 0.00867
- solubility (mole fraction) (in n-butyl acetate, 298.15 K): 0.0106
- solubility (mole fraction) (in n-butyl acetate, 303.15 K): 0.0118
- solubility (mole fraction) (in n-butyl acetate, 308.15 K): 0.0136
- solubility (mole fraction) (in n-butyl acetate, 313.15 K): 0.0158
- solubility (mole fraction) (in n-butyl acetate, 318.15 K): 0.0178
- solubility (mole fraction) (in n-butyl acetate, 323.15 K): 0.021
- solubility (mole fraction) (in n-butyl acetate, 328.15 K): 0.0244
- solubility (mole fraction) (in n-pentanol, 283.15 K): 0.00696
- solubility (mole fraction) (in n-pentanol, 288.15 K): 0.00853
- solubility (mole fraction) (in n-pentanol, 293.15 K): 0.0101
- solubility (mole fraction) (in n-pentanol, 298.15 K): 0.012
- solubility (mole fraction) (in n-pentanol, 303.15 K): 0.014
- solubility (mole fraction) (in n-pentanol, 308.15 K): 0.0169
- solubility (mole fraction) (in n-pentanol, 313.15 K): 0.0197
- solubility (mole fraction) (in n-pentanol, 318.15 K): 0.0234
- solubility (mole fraction) (in n-pentanol, 323.15 K): 0.0272
- solubility (mole fraction) (in n-pentanol, 328.15 K): 0.0313
- solubility (mole fraction) (in n-propyl acetate, 283.15 K): 0.00732
- solubility (mole fraction) (in n-propyl acetate, 288.15 K): 0.00802
- solubility (mole fraction) (in n-propyl acetate, 293.15 K): 0.0089
- solubility (mole fraction) (in n-propyl acetate, 298.15 K): 0.0103
- solubility (mole fraction) (in n-propyl acetate, 303.15 K): 0.0118
- solubility (mole fraction) (in n-propyl acetate, 308.15 K): 0.0136
- solubility (mole fraction) (in n-propyl acetate, 313.15 K): 0.0155
- solubility (mole fraction) (in n-propyl acetate, 318.15 K): 0.0182
- solubility (mole fraction) (in n-propyl acetate, 323.15 K): 0.0209
- solubility (mole fraction) (in n-propyl acetate, 328.15 K): 0.0237
- solubility (mole fraction) (in sec-butanol, 283.15 K): 0.00623
- solubility (mole fraction) (in sec-butanol, 288.15 K): 0.00789
- solubility (mole fraction) (in sec-butanol, 293.15 K): 0.0101
- solubility (mole fraction) (in sec-butanol, 298.15 K): 0.0121
- solubility (mole fraction) (in sec-butanol, 303.15 K): 0.0149
- solubility (mole fraction) (in sec-butanol, 308.15 K): 0.0182
- solubility (mole fraction) (in sec-butanol, 313.15 K): 0.0219
- solubility (mole fraction) (in sec-butanol, 318.15 K): 0.0274
- solubility (mole fraction) (in sec-butanol, 323.15 K): 0.0317
- solubility (mole fraction) (in sec-butanol, 328.15 K): 0.0362
- solubility (mole fraction) (in toluene, 283.15 K): 0.00062
- solubility (mole fraction) (in toluene, 288.15 K): 0.00086
- solubility (mole fraction) (in toluene, 293.15 K): 0.0012
- solubility (mole fraction) (in toluene, 298.15 K): 0.00152
- solubility (mole fraction) (in toluene, 303.15 K): 0.00196
- solubility (mole fraction) (in toluene, 308.15 K): 0.00252
- solubility (mole fraction) (in toluene, 313.15 K): 0.00301
- solubility (mole fraction) (in toluene, 318.15 K): 0.00369
- solubility (mole fraction) (in toluene, 323.15 K): 0.0044
- solubility (mole fraction) (in toluene, 328.15 K): 0.0054
